Where two headings read alike, the source gives them in different places.
Legend:
[1] = tested on: P. falciparum strain 3D7; assay: Inhibitor susceptibility dose-response assay (SYBR-Green I), P. falciparum 3D7; assay type: cell-based, Plasmodium falciparum; details: read-out: IC50 (S.D.), P. falciparum-3D7
Procedure: (§1) The P. falciparum strains 3D7 and Dd2 were obtained from the Walter and Eliza Hall Institute (Melbourne, Australia) and the Malaria Research and Reference Reagent Resource, respectively. […] B. divergens parasites were maintained and assayed in mixed stages without synchronization.
(§2) Ring-stage P. falciparum (1%-parasitemia starting, 1%-hematocrit) and asynchronous B.divergens (0.5%-parasitemia starting, 3%-hematocrit) were incubated with plated compounds for 72h, and ring-stage P. knowlesi (1%-parasitemia starting, 1%-hematocrit) for 48h, before lysis and staining with dye. To quantify the species-specificity of the inhibitors, we divided the range of IC50s across the 4 test lines by the average IC50 across the same lines: inhibitors with increased scores show species-specific activity and reduced scores indicate broad-spectrum, pan-species activity.

[2] = tested on: uninfected RBCs; assay: Cellular phosphatidylserine exposure assay (annexin V flow cytometry);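 further: flow cytometry recording 10,000 events per condition, gated on single cells, with the two experiments using blood from separate donors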
Source text: (§3) We analyzed samples using a volumetric MACSQuant Analyzer Flow Cytometer (Miltenyi Biotec), manually resuspending each row immediately prior to sample uptake. We recorded 10,000 total events for each condition at the instrument-defined low flow rate. We assessed all compounds in 2 separate experiments with blood from different donors. […] All samples were gated for single cell events.

[3] = tested on: uninfected RBCs; details: for hemolysis of RBCs, in words: 5x P. falciparum 3D7-IC50, 24, 48, 72h
Source text: as §3

[4] = tested on: AQP3; set-up: method as in PMID 22624030; details: RBC assay: AQP3 glycerol conductance ref PMID 22624030; read-out: Micromolar IC50 (RBC), AQP3 glycerol conductance; cited from earlier work
[5] = tested on: P. knowlesi YH1 strain; assay: microbe, parasite or virus in culture; assay type: cell-based, Plasmodium knowlesi; details: read-out: IC50 (S.D.), P. knowlesi
Procedure: as §1, §2

[6] = tested on: BdC9 line of B. divergens; assay: Inhibitor susceptibility dose-response assay (SYBR-Green I), B. divergens; assay type: cell-based, Babesia divergens; details: for IC50: read-out: IC50 (S.D.), B. divergens; for fold lower IC50s against B. divergens than the Plasmodium spp.: B. divergens vs Plasmodium spp.
Procedure: as §1, §2

[7] = tested on: P. falciparum strain Dd2; assay: Inhibitor susceptibility dose-response assay (SYBR-Green I), P. falciparum Dd2; assay type: cell-based, Plasmodium falciparum; details: read-out: IC50 (S.D.), P. falciparum-Dd2
Procedure: as §1, §2

[8] = in vitro; details: human
Source text: as §3

[9] = tested on: breast cancer cell line panel; set-up: method as in PMID 21159648; details: cellular proliferation ref PMID 21159648; read-out: Micromolar IC50 (breast cancer cell line panel); cited from earlier work
[10] = tested on: AP-1 transcription factor activation; set-up: method as in PMID 17175522; details: ref PMID 17175522; read-out: Micromolar IC50 (AP-1 transcription factor activation); cited from earlier work
[11] = tested on: serum- or growth factor induced fibroblasts; set-up: method as in PMID 8519682; details: cellular proliferation ref PMID 8519682; read-out: Micromolar IC50 (serum- or growth factor induced fibroblasts); cited from earlier work
[12] = tested on: human epithelial cells; set-up: method as in PMID 17145850; details: cellular proliferation ref PMID 17145850; read-out: Micromolar IC50 (human epithelial cells); cited from earlier work
[13] = tested on: alloresponsive T cell proliferation; set-up: method as in PMID 24131367; details: ref PMID 24131367; read-out: Micromolar IC50 (alloresponsive T cell proliferation); cited from earlier work
[14] = tested on: HCT-116; details: read-out: Micromolar IC50 (anchorage formation, HCT-116); ref PMID 15225706; cited from earlier work
[15] = target: ELK1-luciferase assay, HeLa; details: read-out: Micromolar IC50 (ELK1-luciferase assay, HeLa); ref PMID 15225706; cited from earlier work
[16] = tested on: P. falciparum (3D7); assay: Assay for inhibition of parasite proliferation via RBC-targeting (transient exposure of RBCs, wash, then infection); assay type: cell-based, Plasmodium falciparum
Procedure: All plates were frozen for storage before assay. For assay, duplicate plates were preincubated with donor O+ RBCs at 2% hematocrit at 37°C in 50µL for 4-5 hours. Following preincubation, one but not the other plate in each pair was washed 4X in complete RPMI to dilute inhibitor. We transferred RBCs from both washed and unwashed plates to black, clear bottom 96-well plates (Corning Cat. No. 3904) and supplemented these suspensions with MACS-purified P. falciparum (3D7) schizonts for a starting parasitemia of 0.1% - 0.25% at 1% hematocrit. Following 72h incubation in standard culture conditions, samples were processed for SYBR-Green I signal ([Mandt et al., 2019]). […] To identify host-targeting compounds, we compared DMSO-treated to inhibitor-treated samples (Students t-test, paired). We carried out the assay with 1 µM mefloquine (Sigma-Aldrich Cat. No. M2319) as a control for reversible inhibition. All assays were conducted in biological triplicate, with each experiment utilizing different donor RBCs. For select compounds, we carried out this same assay in a dose-response series (n=3 experiments). Following normalization to DMSO-controls, we assessed inhibitor activity following transient exposure of RBCs by Two-Way ANOVA tests for repeated measures (Graphpad Prism v9): high P values indicate support for the null hypothesis that dose-dependent inhibition is not modulated by dilution after exposure, consistent with a direct inhibitory effect of the compounds on RBCs persisting after transient exposure.

[17] = tested on: sickle RBCs; set-up: method as in PMID 33208899; details: RBC assay: PS exposure in sickle RBCs ref PMID 33208899; read-out: Micromolar IC50 (RBC), PS exposure in sickle RBCs; cited from earlier work
[18] = 72h, ring-stage, n=3 experiments (or 2 where indicated with *)
[19] = Plasmodium falciparum, 3D7, 72h, ring-stage, n=3 experiments (or 2 where indicated with *)
[20] = 24h, 5x P. falciparum 3D7-IC50, % of RBCs, mean of 2 experiments
[21] = 48h, 5x P. falciparum 3D7-IC50, % of RBCs, mean of 2 experiments
[22] = Babesia divergens, 72h, asynchronous, n=3 experiments (or 2 where indicated with *)
[23] = Plasmodium falciparum, DD2, 72h, ring-stage, n=3 experiments (or 2 where indicated with *)
[24] = uninfected RBCs (red blood cells), 1% hematocrit
[25] = Plasmodium falciparum, 3D7, 72 h
[26] = Plasmodium falciparum, DD2, 72 h
[27] = 72h, 5x P. falciparum 3D7-IC50, % of RBCs, mean of 2 experiments

| Structure (SMILES) | Phosphatidylserine exposure (%) 72h [2] | Phosphatidylserine exposure (%) 24h [2, 20] | Phosphatidylserine exposure (%) 48h [2, 21] | IC50 ([5]; Plasmodium knowlesi, 48 h) | hemolysis at 24 h, 5 x P. falciparum 3D7-IC50 [8, 24] | hemolysis at 48 h, 5 x P. falciparum 3D7-IC50 [8, 24] | hemolysis at 72 h, 5 x P. falciparum 3D7-IC50 [8, 24] | IC50 [1, 25] | IC50 ([6]; Babesia divergens, 72 h) | IC50 [7, 26] | Phosphatidylserine exposure (%) 72h [2, 27] | also measured |
| --- | --- | --- | --- | --- | --- | --- | --- | --- | --- | --- | --- | --- |
| [Cl][Au]([Cl])[Cl].c1cnc2c(c1)ccc1cccnc12 [Auphen] | 24% | – | – | – | – | – | – | – | – | – | – | IC50 [1, 18]: 1.1 µM; Phosphatidylserine exposure (%) 24h [2]: 3%; Phosphatidylserine exposure (%) 48h [2]: 10. %; Hemolysis (%) 24h [3]: -7%; Hemolysis (%) 48h [3]: 5%; Hemolysis (%) 72h [3]: 10. %; IC50 [4]: 0.8 µM; IC50 ([5]; 48h, ring-stage, n=3 experiments (or 2 where indicated with *)): 2 µM; IC50 ([6]; 72h, asynchronous, n=3 experiments (or 2 where indicated with *)): 2.8 µM; IC50 [7, 18]: 0.61 µM |
| O=C(O)c1ccc2c(c1)nc(Nc1cccc(Cl)c1)c1ccncc12 [CX-4945] | 3% | 2% | 2% | 9 µM | – | – | – | – | – | – | – | hemolysis at 24 h, 5 x P. falciparum 3D7-IC50 [8]: -4%; hemolysis at 48 h, 5 x P. falciparum 3D7-IC50 [8]: -1%; hemolysis at 72 h, 5 x P. falciparum 3D7-IC50 [8]: 16%; IC50 [9]: 1.7 to 20 µM; IC50 [1, 19]: 9 µM; PS exposure on RBCs, in words ([2]; 5x P. falciparum 3D7-IC50, 24, 48, 72h): similarly low levels; hemolysis of RBCs, in words [3]: similarly low levels; IC50 [6, 22]: 10 µM; IC50 [7, 23]: 6 µM |
| COc1ccc2c(c1)c(C1=C(c3c[nH]c4ccccc34)C(=O)NC1=O)cn2CCCN(C)C [Go6983] | 4% | 2% | 2% | 4 µM | -7% | 5% | 12% | 2 µM | 0.5 µM | 2 µM | – | fold lower IC50s against B. divergens than the Plasmodium spp. [6]: at least 3 fold; IC50 [10]: 0.1 µM |
| COc1ccc(S(=O)(=O)N(CCO)c2ccccc2CN(C)C/C=C/c2ccc(Cl)cc2)cc1 [KN-93 Phosphate] | – | 2% | 2% | 5 µM | -4% | 7% | 16% | 3.9 µM | 6 µM | 3 µM | 4% | IC50 [11]: 6 to 12 µM |
| CN(C)CCOc1ccc(-c2nc(-c3ccncc3)c(-c3ccc4c(c3)CC/C4=N\O)[nH]2)cc1 [SB590885] | – | 2% | 2% | 1.4 µM | -4% | 4% | 11% | 0.7 µM | 4 µM | 1 µM | 4% | IC50 [12]: 1.1 to 6.1 µM |
| CN1CCN(c2nc(C3=C(c4c[nH]c5ccccc45)C(=O)NC3=O)c3ccccc3n2)CC1 [Sotrastaurin] | – | 2% | 2% | 5 µM | -7% | 9% | 17% | – | – | – | 4% | IC50 [1, 19]: 5 µM; IC50 [13]: 0.09 µM; IC50 [6, 22]: 10 µM; IC50 [7, 23]: 3 µM |
| N#CC(=C(N)Sc1ccccc1N)C(C#N)=C(N)Sc1ccccc1N [U0126] | 9% | 2% | – | 20 µM | – | – | – | 5.3 µM | 30 µM | 3.9 µM | – | hemolysis at 24 h, 5 x P. falciparum 3D7-IC50 [8]: 3%; hemolysis at 48 h, 5 x P. falciparum 3D7-IC50 [8]: 9%; hemolysis at 72 h, 5 x P. falciparum 3D7-IC50 [8]: 20%; IC50 [14]: 19.4 µM; Phosphatidylserine exposure (%) 48h [2]: 4%; IC50 [15]: 0.293 µM |
| Clc1cccc(Cl)c1CSc1nnc(-c2cnccn2)s1 [Yoda1] | – | – | 100. % | 7 µM | 7% | 38% | 57% | 4.2 µM | 1.11 µM | 6 µM | 100. % | antimalarial activity retained after transient exposure of RBCs, relative to continuous exposure to inhibitor ([16]; 5x P. falciparum 3D7-IC50, RBC preincubation 4-5 hours then washed, 100% = inhibition with continuous exposure, P<0.01): ≥ 80%; inhibitory activity following transient exposure of RBCs, in words ([16]; transient vs continued exposure, dose-response format where stated, n=3): statistically indistinguishable from inhibition with continued exposure; hemolysis of RBCs, in words [3]: rapid onset of hemolysis comparable to control compound A23187; fold lower IC50s against B. divergens than the Plasmodium spp. [6]: at least 3 fold; IC50 [17]: ~2 µM |

Reference: article PMC10988762, “Inhibition of malaria and babesiosis parasites by putative red blood cell targeting small molecules” (Frontiers in Cellular and Infection Microbiology, 2024)
